According to ChEMBL document CHEMBL1201862, “PubChem BioAssay data set” (2004):
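How tested: cells in 96-well plates exposed to compound for 48 hours at five concentrations. GI50 marks 50% less growth.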 The source made the active and inactive calls. No stated cut-off is given here; in the data, active = GI50 up to about 1.1 µM and inactive = higher.

What was measured:
Experiment in all cases: DTP human tumour cell line panel, 48 h
[1] = tested on: A549
[2] = tested on: NCI-H23
[3] = tested on: MOLT-4
[4] = tested on: LXFL 529
[5] = tested on: HT-29
[6] = tested on: RPMI-8226
[7] = tested on: KM12
[8] = tested on: UO-31
[9] = tested on: M14
[10] = tested on: M19-MEL
[11] = tested on: A498
[12] = tested on: SF-268
[13] = tested on: NCI-H226
[14] = tested on: NCI-H522
[15] = tested on: HOP-18
[16] = tested on: SN12C
[17] = tested on: NCI-H460
[18] = tested on: SK-MEL-28
[19] = tested on: SNB-78
[20] = tested on: TK-10
[21] = tested on: LOX IMVI
[22] = tested on: Malme-3M
[23] = tested on: COLO 205
[24] = tested on: HOP-92
[25] = tested on: OVCAR-4
[26] = tested on: DLD-1
[27] = tested on: HL-60
[28] = tested on: 786-0
[29] = tested on: OVCAR-5
[30] = tested on: HCT-15
[31] = tested on: CAKI-1
[32] = tested on: K562
[33] = tested on: EKVX
[34] = tested on: CCRF-CEM
[35] = tested on: OVCAR-8
[36] = tested on: SNB-75
[37] = tested on: HOP-62
[38] = tested on: SF-539
[39] = tested on: HCT-116
[40] = tested on: U-251
[41] = tested on: KM-20L2
[42] = tested on: UACC-62
[43] = tested on: SW-620
[44] = tested on: RXF 393
[45] = tested on: SNB-19
[46] = tested on: IGROV-1
[47] = tested on: SK-MEL-5
[48] = tested on: ACHN
[49] = tested on: UACC-257
[50] = tested on: SF-295
[51] = tested on: OVCAR-3
[52] = tested on: DMS-273
[53] = tested on: DMS-114

COc1cc(CCc2cccnc2)cc(OC)c1OC
GI50 [1]: > 100 µM (inactive)
GI50 [2]: > 100 µM (inactive)
GI50 [3]: > 100 µM (inactive)
GI50 [4]: > 100 µM (inactive)
GI50 [5]: > 100 µM (inactive)
GI50 [6]: > 100 µM (inactive)
GI50 [7]: > 100 µM (inactive)
GI50 [8]: > 100 µM (inactive)
GI50 [9]: > 100 µM (inactive)
GI50 [10]: > 100 µM (inactive)
GI50 [11]: > 100 µM (inactive)
GI50 [12]: > 100 µM (inactive)
GI50 [13]: > 100 µM (inactive)
GI50 [14]: 65.8 µM (inactive)
GI50 [15]: > 100 µM (inactive)
GI50 [16]: > 100 µM (inactive)
GI50 [17]: > 100 µM (inactive)
GI50 [18]: > 100 µM (inactive)
GI50 [19]: > 100 µM (inactive)
GI50 [20]: > 100 µM (inactive)
GI50 [21]: > 100 µM (inactive)
GI50 [22]: > 100 µM (inactive)
GI50 [23]: > 100 µM (inactive)
GI50 [24]: 30.3 µM (inactive)
GI50 [25]: > 100 µM (inactive)
GI50 [26]: > 100 µM (inactive)
GI50 [27]: > 100 µM (inactive)
GI50 [28]: > 100 µM (inactive)
GI50 [29]: 38.5 µM (inactive)
GI50 [30]: > 100 µM
GI50 [31]: > 100 µM (inactive)
GI50 [32]: > 100 µM (inactive)
GI50 [33]: > 100 µM (inactive)
GI50 [34]: > 100 µM (inactive)
GI50 [35]: > 100 µM (inactive)
GI50 [36]: 51.1 µM (inactive)
GI50 [37]: > 100 µM (inactive)
GI50 [38]: > 100 µM (inactive)
GI50 [39]: > 100 µM (inactive)
GI50 [40]: > 100 µM (inactive)
GI50 [41]: > 100 µM (inactive)
GI50 [42]: > 100 µM (inactive)
GI50 [43]: > 100 µM (inactive)
GI50 [44]: > 100 µM (inactive)
GI50 [45]: > 100 µM (inactive)
GI50 [46]: > 100 µM (inactive)
GI50 [47]: > 100 µM (inactive)
GI50 [48]: > 100 µM (inactive)
GI50 [49]: > 100 µM (inactive)
GI50 [50]: > 100 µM (inactive)
GI50 [51]: > 100 µM (inactive)
GI50 [52]: > 100 µM (inactive)
GI50 [53]: 77.4 µM (inactive)
